Measured values published in patent publication US4374284A, “Antiulcer, antiinflammatory, and antiallergic agent comprising as the main ingredient olean-12-ene-3β, 30-diol which is devoid of side effects of glycyrrhetinic acid and a new process for preparation of olean-12-ene-3β, 30-diol” (Minophagen Pharmaceutical Company, priority 1980, dated 1983).
Entries after “also recorded” stand apart in the source; their conditions may differ.

Assays:
[1] = biological target: T1, Δ^4 -5α-reductase for aldosterone in rat liver (Rattus norvegicus, UniProt P24008); assay: inhibitory action on Δ^4-5α-reductase for aldosterone; format: biochemical
T1 construct: The pellet was appropriately diluted with a solution of 0.25 M sucrose-1 mM EDTA to use as a 5α-reductase solution; from tissue; host or cells: rat liver, 105,000 g pellet
T1 sequence (P24008 1-259): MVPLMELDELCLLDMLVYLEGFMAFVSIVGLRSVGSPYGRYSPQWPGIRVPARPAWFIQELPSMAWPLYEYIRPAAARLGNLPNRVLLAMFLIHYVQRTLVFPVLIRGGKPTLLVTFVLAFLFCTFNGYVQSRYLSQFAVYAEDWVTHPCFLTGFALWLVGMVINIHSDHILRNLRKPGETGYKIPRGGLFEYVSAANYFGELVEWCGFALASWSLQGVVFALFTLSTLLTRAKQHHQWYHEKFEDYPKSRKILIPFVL
Protocol: In vitro experimental results regarding effects of glycyrrhetinic acid (II) and its modified compounds (III), (IV), and (I) on Δ^4 -5α and 5β-reductase for aldosterone in rat liver will be shown below.
Assay for activity of Δ^4 -5α and 5β-reductase
(1) Preparation of enzyme solutions
Rat livers were perfused with saline and excised to prepare a 25% or 50% homogenate with a solution of 0.25 M sucrose and 1 mM EDTA. The homogenate was spun at 10,000 g for 20 minutes to separate supernatant, which was centrifuged again at 105,000 g to obtain Δ^4 -5β-reductase as the supernatant. The pellet was appropriately diluted with a solution of 0.25 M sucrose-1 mM EDTA to use as a 5α-reductase solution.
(2) Conditions for incubation and assay
1 Aldosterone . . . 0.173 μM/0.05 ml ethanol solution
2 Glycyrrhetinic acid or its modified compounds . . . 0.173 μM/0.05 ml ethanol solution Control . . . 0.05 ml ethanol solution
5α-reductase solution 0.1 ml
5β-reductase solution 0.1 ml or 0.2 ml
5 Phosphate buffer (0.1 M, pH 7.2) 1 ml
The components 1 , 2 , 3 , 4 , 5 , and 6 mentioned above were mixed to bring the total volume up to 2.5 ml. The mixture was incubated at 37° C. for 20 minutes. Before the incubation, however, 1 ml aliquot was removed from 2.5 ml of the mixture mentioned above and extracted with 5 ml of methylene dichloride. After the incubation, the remaining 1.5 ml was extracted with 5 ml of methylene dichloride. The optical density of the two methylene dichloride solutions prepared before and after the incubation was measured by a spectrophotometer (Hitachi) at 240 mμ. Inhibition % of Δ^4 -5α and 5β-reductase activity was calculated from the difference in the optical density.

aspirin-induced ulcer [2] = assay: rat experiment on aspirin-induced ulcer, pylorus ligated (experiment a); format: in vivo, male Wister rats
Protocol: (b) Rat experiment on aspirin-induced ulcer
(a) Experimental procedures:
Male Wister rats weighing about 220 g were made to fast for 24 hours. Water was given freely. The rats were laparotomized under anesthesia with ether. The stomach was drawn out and ligated at the pylorus. Immediately thereafter, 1% CMC suspension of aspirin was administered orally in a dose of 100 mg/kg/5 ml. Aqueous suspensions of compounds to be tested were prepared in the same manner as in the experiment (a) and administered intraduodenally at the same time. The wound was closed and the rats were set free. After 7 hours, the stomach was excised and ulcer was measured in the same manner as in the experiment (a).

aspirin-induced ulcer [3] = assay: rat experiment on aspirin-induced ulcer, oral (experiment b); format: in vivo, male Wister rats
Protocol: (b) Experimental procedures:
Male Wister rats weighing 120-140 g were made to fast for 24 hours, and compounds to be tested were administered orally. After 5 hours, the rats were killed by a blow. The stomach was excised and observed for the presence of ulcer.
The size of ulcer was measured by ulcer index (ulcer length×width mm^2).

[4] = tested on: rat paw edema induced with carrageenin; assay: test on rat paw edema induced with carrageenin (antiinflammatory); format: in vivo, male Wister rats
Protocol: (a) Test on rat paw induced with carrageenin
To the plantar side of the hind paw of male Wister rats was administered subcutaneously 0.05 ml/rat of 10% saline solution of carrageenin. Edema after three hours was measured by the volume method and the rate of inhibition was assayed. Compounds were administered orally 30 minutes before administration of carrageenin. [formula]

[5] = tested on: PCA reaction (type I allergy); assay: PCA test (type I allergy); format: in vivo, male Wister rats
Protocol: (a) PCA--Test (type I allergy)
Male Wister rats weighing […] were shaved at the abdomen. After 24 hours, 0.05 ml of serum diluted with saline (Blood samples were diluted to 1/32 and 1/64; The blood samples were collected from rats 3 weeks after administration of pertussis vaccine and egg albumin.) was injected intradermally at the abdomen. After 48 hours, compounds to be tested were administered intraperitoneally. Two hours thereafter, 0.5 ml./100 g of a solution of antigen and pigment (a solution of 0.4% egg albumin and 0.5% Pontamine sky blue) was administered. After 45 minutes, the rats were decapitated and bled, and the diameter of the pigment-leaking site under the skin was measured to obtain the area.

acute toxicity test = format: in vivo, male mice (ddY); conditions: mouse, in vivo
Protocol: (§1) To male mice (ddY) weighing 24 g-26 g, 10 mice in one group, compounds to be tested (suspended in Tween 80) in various doses of the ratio (1, 2) were administered (orally and intraperitoneally), and LD50 was determined by the Litchfield-Wilcoxon method.

mice = assay: acute toxicity test; format: in vivo, male mice (ddY); conditions: oral and intraperitoneal
Protocol: as §1

CC1(C)[C@@H](O)CC[C@]2(C)[C@H]3CC=C4[C@@H]5C[C@@](C)(CO)CC[C@]5(C)CC[C@@]4(C)[C@]3(C)CC[C@@H]12 [I, olean-12-ene-3β, 30-diol]
inhibition at 0.173 µM ([1]; pH 7.2, read-out: 5α-reductase (inhibition %)): -7.1%
effect upon Δ^4 -5α-5β-reductase (in words), 5α ([1]; summary in words, liver reductase): no inhibitory activity
ulcer index (aspirin-induced ulcer [2]; 320 mg/kg (head p.o.; text intraduodenally), aspirin 100 mg/kg, after 7 hours, control 14.1 ± 3.14): 6.2 ± 2.37
inhibitory effect on aspirin-induced ulcer, experiment (a) (in words) (aspirin-induced ulcer [2]; rat, in vivo): showed an inhibitory effect
ulcer index (ulcer length×width) (aspirin-induced ulcer [3]; 200 mg/kg p.o., after 5 hours, control 0): 0 mm^2
effect on ulcer, experiment (b) (in words) (aspirin-induced ulcer [3]; rat, in vivo): did not produce ulcer and inhibited the development of ulcer induced by aspirin
edema % ([4]; 200 mg/kg p.o., after three hours, control 71 ± 6): 52 ± 5%
inhibition at 200 mg/kg ([4]; Rattus norvegicus, po, 3 h, edema, 200 mg/kg p.o., after three hours): 26.8%
inhibitory activity against inflammation (in words) ([4]; rat, in vivo): has an inhibitory activity against inflammation, but the activity is inferior to that of aspirin; also recorded: will not affect the inhibitory activity of aspirin
area ([5]; serum 1/32, 100 mg/kg intraperitoneally, control 35.2 ± 5.3): 22.3 ± 9.1 mm^2
area ([5]; serum 1/64, 100 mg/kg intraperitoneally, control 16.4 ± 2.8): 6.8 ± 4.6 mm^2
area ([5]; serum 1/64, 200 mg/kg intraperitoneally, control 16.4 ± 2.8): 6.3 ± 4.8 mm^2
PCA activity compared with (II) (in words) ([5]; serum diluted to 1/64): a little stronger than that of (II)
LD50 (acute toxicity test; ip, intraperitoneal administration): > 4000 mg/kg
LD50 (acute toxicity test; oral administration): > 5000 mg/kg
acute toxicity (in words) (mice): very low toxicity
